Experimental data from BigSolDB 2.1.

Cl.Nc1ccccc1
solubility (mole fraction)
Details	288.15 K	298.15 K	308.15 K	318.15 K	328.15 K
in ethanol	0.082	0.098	0.115	0.134	0.155
in methanol	0.144	0.165	0.188	0.208	0.23
in n-propanol	0.047	0.057	0.07	0.083	0.098
